Where two headings read alike, the source gives them in different places.

In data set [1] the test system is Gram-negative pneumonia. In words: Example C: clinical outcome, IV antibiotic days and tolerability. It counts as in vivo, patients. The following applies: placebo group versus aerosol group, p=0.02. The procedure: (§1) A study, using a double-blind, placebo-controlled protocol, was conducted of nebulized amikacin delivered using one or more embodiments of the pulmonary drug delivery system of the present invention in ventilated patients with Gram-negative pneumonia. The aerosol therapy was adjunctive to IV therapy per American Thoracic Society (ATS) guidelines. In this study, sixty seven patients received at least one dose of aerosol medication. Patients were randomized equally to three study arms. Arm 1 patients received an aerosolized dose of 400 mg amikacin once daily, alternating with a placebo on a twelve hour schedule. Arm 2 patients received 400 mg of amikacin twice daily (i.e. […]). Patients in Arm 3 were randomized to two aerosol treatments of placebo every twelve hours. The placebo was Normal saline. The amikacin concentration was determined in TA collected 15 min and 1, 2, 4, 8 and 12 hours after delivery of the morning dose on Days 1 and 3. A PDDS/ventilator circuit configuration was as described for Example B. The microprocessor was set to deliver aerosol during the first approximately 75% of the inspiration, to achieve aerosol drug deposition of 50-75% of the dose, within approximately 45 to 60 minutes. Amikacin levels were monitored by daily blood sampling.

Data set [2] concerns Gram-negative pneumonia. Type of data set: in vivo, patients. The procedure:
A study, using a double-blind, placebo-controlled protocol, was conducted of nebulized amikacin delivered using one or more embodiments of the pulmonary drug delivery system of the present invention in ventilated patients with Gram-negative pneumonia. The aerosol therapy was adjunctive to IV therapy per American Thoracic Society (ATS) guidelines. Patients were randomized equally to three study arms. Arm 1 patients received an aerosolized dose of 400 mg amikacin once daily, alternating with a placebo on a twelve hour schedule. Arm 2 patients received 400 mg of amikacin twice daily (i.e. […]). Patients in Arm 3 were randomized to two aerosol treatments of placebo every twelve hours. The placebo was Normal saline. Peak amikacin concentration was determined in serum collected 0.25, 1, 2, and 4 hours after delivery of the dose on days 1 and 3, and the data was used to calculate Cmax. Trough concentrations were determined daily 30 minutes prior to the first daily dose. A PDDS/ventilator circuit configuration was as described for Example B. The microprocessor was set to deliver aerosol during the first approximately 75% of the inspiration, to achieve aerosol drug deposition of 50-75% of the dose within approximately 45 to 60 minutes. Amikacin levels were monitored by daily blood sampling.
The embodiments of devices, apparatus and/or methods of the present invention thus reduce the number of antibiotics required systemically to achieve a therapeutic result.

Data set [3] has as its system Gram-negative, pneumonia-causing bacteria. The settings on record: locally in TA; cited from earlier work.
Data set [4] is classed as in vivo. The following applies: all Arm 1 and 2 patients. The protocol: A study, using a double-blind, placebo-controlled protocol, was conducted of nebulized amikacin delivered using one or more embodiments of the pulmonary drug delivery system of the present invention in ventilated patients with Gram-negative pneumonia. The aerosol therapy was adjunctive to IV therapy per American Thoracic Society (ATS) guidelines. Such guidelines are fully set forth, for example, in the American Journal of Respiratory Critical Care Medicine, Vol 171, pages 388-416 (2005), incorporated by reference herein in its entirety. Twelve patients were randomized equally to three study arms: Arm 1 received an aerosolized dose of 400 mg amikacin once daily, and thereafter alternating every twelve hours with placebo. Arm 2 patients received 400 mg of amikacin twice daily (i.e. […]). Patients in Arm 3 were randomized to two aerosolized treatments of placebo every twelve hours. The placebo was Normal saline. […] Amikacin levels were monitored by daily blood sampling. […] The apparent volume of epithelial lining fluid (ELF) recovered by BAL was determined by using urea as an endogenous marker of dilution. The same day, the amikacin concentration was determined in tracheal aspirates (TA) collected 15 min and 1, 2, 4, 8 and 12 hours post aerosol delivery.

On the set-up of data set [5]: species or system patients. The following applies: in vivo. The protocol: In this Example, the dose-response to aerosolized amikacin, administered in accordance with one or more embodiments of devices, apparatus and/or methods of the present invention was evaluated, as was the ability to deliver a predefined target multiple of an MIC for Gram-negative bacteria causing pneumonia, including, Pseudomonas species, in the tracheal aspirates (TA). […] Thus the desired multiple is 6,400 μg/mL.
as §1

The mark [6] stands for this setting: 400 mg daily (N = 20), percent of patients.
[7] abbreviates: 400 mg twice daily (N = 16), count.
Where [8] appears, read: 400 mg twice daily (N = 16), percent of patients.

For `NCC[C@H](O)C(=O)N[C@@H]1C[C@H](N)[C@@H](O[C@H]2O[C@H](CN)[C@@H](O)[C@H](O)[C@H]2O)[C@H](O)[C@H]1O[C@H]1O[C@H](CO)[C@@H](O)[C@H](N)[C@H]1O` [amikacin], the “IV antibiotic days at the end of aerosol administration” value in data set [1] is “placebo group had statistically more IV antibiotic days then the aerosol group”. The “mean IV antibiotics at end of treatment, aerosolized placebo relative to twice daily aerosolized amikacin” value in data set [2] (400 mg BID, end of treatment (mean of seven days)) is on record as “about two”. Further, the “Total Number of Daily Antimicrobials” value in data set [2] (400 mg daily (N = 20)) is on record as 118; in data set [2] (400 mg twice daily (N = 16)) it was 75. Further, the “Number of Patients With at Least One Daily Antimicrobial” value in data set [2] (400 mg daily (N = 20), count) was 19; in data set [2] (setting [6]), “(95.0%)”; in data set [2] (setting [7]) it was 16; in data set [2] (setting [8]), “(100.0%)”. Further, the “patients with ANTIBACTERIALS FOR SYSTEMIC USE” value in data set [2] (400 mg daily (N = 20), count) was 18; in data set [2] (setting [6]) it was “(90.0%)”; in data set [2] (setting [7]), 16; in data set [2] (setting [8]), “(100.0%)”. For the same compound, the “reference MIC value” in data set [3] was 256 µg/mL. The “amikacin levels versus highest MIC values” in data set [4] is reported as “exceeded the highest MIC values for pathogens causing Gram-negative pneumonia”. Moreover, the “TA levels of amikacin” value in data set [5] (human) is recorded as “exceeded 1,100 μg/mL”. Also, the “TA level as multiple of the reference MIC target value” in data set [5] is given as “at least four”. Further, the “amikacin level versus highest MIC values” in data set [5] was “exceeded the highest MIC values for most Gram negative pathogens causing pneumonia”.

Source of the values: patent US8336545B2, “Methods and systems for operating an aerosol generator” (priority 2001, dated 2012).
